According to patent US7405241B2, “Use of N2O in the treatment of post-ischemic brain cell deterioration” (Air Liquide Sante (International), priority 2003, dated 2008):

Legend:
[1] = tested on: transient focal cerebral ischemia by middle cerebral artery occlusion (MCAO); test: Transient focal cerebral ischemia by middle cerebral artery occlusion (MCAO) in rats, infarct volume after gas inhalation; format: in vivo; conditions: rat MCAO, compared to air (mixture No. 1); for post-ischemic volume of cortical infarction: FIG. 3b; for post-ischemic volume of striatal infarction: FIG. 3c; for post-ischemic volume of oedema: FIG. 3d
Experimental: On day 1, focal ischemia was induced in each of the rats by middle cerebral artery occlusion (MCAO), for a period of 1 h 30 minutes.
The transient focal cerebral ischemia by MCAO is obtained conventionally by introducing a flexible nylon thread 1, represented diagrammatically in FIG. 1 (length 6.5 mm, diameter 180 μm), a portion 2 of the proximal end of which has a diameter greater than that of the thread (length 3 mm, diameter 380 μm), into the vascular system of the rat, as far as the region of the ipsilateral hemisphere so as to cause an embolism therein, i.e. an ischemia.
Next, the rats are reperfused for 10 to 20 minutes, and are then made to inhale several mixtures of gases, namely: • mixture No. 1: air (control) • mixture No. 2: N2O (75% vol), the remainder being oxygen (25%) • mixture No. 3: xenon (50% vol), the remainder being oxygen (20 to 25%) and nitrogen (30 to 25%), respectively • mixture No. 4: xenon (75% vol), the remainder being oxygen (25%).
On day 2, i.e. 24 hours after reperfusion, the rats are killed, the brains are recovered and frozen, and thin sections 40 μm thick are cut and then stained with cresyl violet, as shown in FIG. 5.
The volume of neuronal death is calculated, from the sections obtained after staining, in a conventional manner using an appropriate, commercially available conventional program.
In fact, as shown diagrammatically in FIG. 2, the cerebral ischemia engenders, in general, in 24 hours, an infarction in the region which has been subjected to ischemia (penumbra), leading to neuronal death in the brain cells present in a considerable portion of this region.

[2] = tested on: brain receptors of the NMDA type; test: Complementary examination of neurotoxic effects of xenon and N2O versus air on NMDA-type brain receptors (FIG. 4); format: in vivo
Experimental: Based on this observation, complementary examinations were carried out in order to determine the neurotoxic effects of the xenon and of the nitrous oxide (N2O), at various amounts, compared to air, on brain receptors of the NMDA type.

[3] = tested on: glutamergic receptors for N-methyl-D-aspartate, NMDA; conditions: in vitro, literature (Franks et al.; Jevtovic-Todorovic et al.; Yamakura and Harris); cited from earlier work

[N-]=[N+]=O [N2O, nitrous oxide]
post-ischemic volume of cortical infarction [1]: decrease
post-ischemic volume of striatal infarction [1]: decrease
post-ischemic volume of oedema [1]: decrease
neuroprotection, comparison between doses ([2]; N2O at 75% by volume compared to N2O at 50%): more neuroprotective
volume of deteriorated NMDA receptors ([2]; in vivo): smaller volume
behaviour at NMDA receptors [3]: low-affinity antagonists

[Xe] [xenon]
post-ischemic volume of cortical infarction [1]: decrease
post-ischemic volume of striatal infarction [1]: decrease
post-ischemic volume of oedema [1]: decrease
volume of deteriorated NMDA receptors ([2]; dose of 50% or 75% by volume, compared to control (air), FIG. 4): smaller volume
neuroprotection, comparison between doses ([2]; xenon at 50% by volume compared to xenon at 75%): more neuroprotective
behaviour at NMDA receptors [3]: low-affinity antagonists
